Laboratory results reported in PubChem BioAssay AID194 (DTP/NCI, 2004).
Where “and” joins values, the source holds several entries; their conditions need not be identical. Equal values may be shown once. Inconclusive results are not listed. How the source made its calls: active means survival T/C of 150% or more; inactive means T/C below 125% in these data.

System: BDF1 mice, B16 melanoma s.c., survival/tumor T/C
Assay: NCI In Vivo Anticancer Drug Screen. Data for tumor model B16 Melanoma (subcutaneous) in B6D2F1 (BDF1) mice
Method: The antitumor activity of compounds was measured in mice bearing transplantable tumors. Survival or tumor size were measured and the results are expressed as the measurement made in the treated group (T) divided by the measurement made in the vehicle treated control group (C). The tumor model used in this assay is B16 Melanoma (subcutaneous) in B6D2F1 (BDF1) mice

[1] = endpoint: median survival time, dose: 50.0 mg/kg/injection, schedule: Q04DX003 (ip), vehicle: saline, higher = longer survival
[2] = endpoint: median survival time, dose: 20.0 mg/kg/injection, schedule: Q01DX009 (ip), vehicle: Klucel (hydroxypropylcellulose) (HPC), higher = longer survival

Measured: T/C

CC1(C)N=C(N)N=C(N)N1c1ccc(OCC(=O)Nc2ccc(S(=O)(=O)F)cc2)c(Cl)c1
inactive: [1] 115 % of control | endpoint: median survival time, dose: 100.0 mg/kg/injection, schedule: Q04DX003 (ip), vehicle: saline, higher = longer survival 113 % of control

OCC1SC(O)C(O)C(O)C1O (stereo not drawn)
inactive: endpoint: median survival time, dose: 500.0 mg/kg/injection, schedule: Q02HX003 (ip), vehicle: saline, higher = longer survival 104 % of control | endpoint: median survival time, dose: 500.0 mg/kg/injection, schedule: Q02HX003 (ip), vehicle: water, higher = longer survival 103 % of control | endpoint: median survival time, dose: 1000.0 mg/kg/injection, schedule: Q02HX003 (ip), vehicle: saline, higher = longer survival 89 % of control | endpoint: median survival time, dose: 1000.0 mg/kg/injection, schedule: Q02HX003 (ip), vehicle: water, higher = longer survival 95 % of control | endpoint: median survival time, dose: 1500.0 mg/kg/injection, schedule: Q01DX001 (ip), vehicle: saline, higher = longer survival 100 % of control | endpoint: median survival time, dose: 1500.0 mg/kg/injection, schedule: Q01DX001 (ip), vehicle: water, higher = longer survival 99 % of control | endpoint: median survival time, dose: 3000.0 mg/kg/injection, schedule: Q01DX001 (ip), vehicle: saline, higher = longer survival 91 % of control | endpoint: median survival time, dose: 3000.0 mg/kg/injection, schedule: Q01DX001 (ip), vehicle: water, higher = longer survival 92 % of control

COc1cc([C@@H]2c3cc4c(cc3[C@@H](OC3OC5COC(C)OC5C(O)C3O)[C@H]3COC(=O)[C@H]23)OCO4)cc(OC)c1O (stereo partly drawn)
inactive: endpoint: median survival time, dose: 3.0 mg/kg/injection, schedule: Q01DX009 (ip), vehicle: saline, higher = longer survival 117 % of control | endpoint: median survival time, dose: 34.0 mg/kg/injection, schedule: Q01DX001 (ip), vehicle: saline, higher = longer survival 117 % of control | endpoint: median survival time, dose: 50.0 mg/kg/injection, schedule: Q01DX001 (ip), vehicle: saline, higher = longer survival 117 % of control
active: endpoint: median survival time, dose: 2.0 mg/kg/injection, schedule: Q01DX009 (ip), vehicle: saline, higher = longer survival 169 % of control | endpoint: median survival time, dose: 40.0 mg/kg/injection, schedule: Q04DX003 (ip), vehicle: saline, higher = longer survival 156 % of control

O=NN(CCF)C(=O)NC1C(O)CCCC1O (stereo not drawn)
inactive: endpoint: median survival time, dose: 3.11 mg/kg/injection, schedule: Q01DX007 (ip), vehicle: water, higher = longer survival 98 % of control | endpoint: median survival time, dose: 5.18 mg/kg/injection, schedule: Q01DX007 (ip), vehicle: water, higher = longer survival 103 % of control | endpoint: median survival time, dose: 8.64 mg/kg/injection, schedule: Q01DX007 (ip), vehicle: water, higher = longer survival 112 % of control | endpoint: median survival time, dose: 14.4 mg/kg/injection, schedule: Q01DX007 (ip), vehicle: water, higher = longer survival 123 % of control

O=NN(CCCl)C(=O)NC1[C@H](O)CCC[C@@H]1O (stereo partly drawn)
inactive: endpoint: median survival time, dose: 1.56 mg/kg/injection, schedule: Q01DX007 (ip), vehicle: water, higher = longer survival 95 % of control | endpoint: median survival time, dose: 2.59 mg/kg/injection, schedule: Q01DX007 (ip), vehicle: water, higher = longer survival 108 % of control | endpoint: median survival time, dose: 4.32 mg/kg/injection, schedule: Q01DX007 (ip), vehicle: water, higher = longer survival 114 % of control

CCOC(=O)c1csc(CCNC(=O)c2ccccc2)n1
inactive: endpoint: median survival time, dose: 6.25 mg/kg/injection, schedule: Q01DX009 (ip), vehicle: water, higher = longer survival 101 % of control | endpoint: median survival time, dose: 12.5 mg/kg/injection, schedule: Q01DX009 (ip), vehicle: water, higher = longer survival 94 % of control | endpoint: median survival time, dose: 25.0 mg/kg/injection, schedule: Q01DX009 (ip), vehicle: water, higher = longer survival 113 % of control | endpoint: median survival time, dose: 50.0 mg/kg/injection, schedule: Q01DX009 (ip), vehicle: water, higher = longer survival 87 % of control | endpoint: median survival time, dose: 100.0 mg/kg/injection, schedule: Q01DX009 (ip), vehicle: water, higher = longer survival 98 % of control

CCOC(=O)CNC(=O)CCCCSc1ncnc2nc[nH]c12
inactive: [2] 121 % of control | endpoint: median survival time, dose: 40.0 mg/kg/injection, schedule: Q01DX009 (ip), vehicle: Klucel (hydroxypropylcellulose) (HPC), higher = longer survival 111 % of control | endpoint: median survival time, dose: 80.0 mg/kg/injection, schedule: Q01DX009 (ip), vehicle: Klucel (hydroxypropylcellulose) (HPC), higher = longer survival 119 % of control | endpoint: median survival time, dose: 160.0 mg/kg/injection, schedule: Q01DX009 (ip), vehicle: Klucel (hydroxypropylcellulose) (HPC), higher = longer survival 115 % of control | endpoint: median survival time, dose: 320.0 mg/kg/injection, schedule: Q01DX009 (ip), vehicle: Klucel (hydroxypropylcellulose) (HPC), higher = longer survival 118 % of control | endpoint: median survival time, dose: 640.0 mg/kg/injection, schedule: Q01DX009 (ip), vehicle: Klucel (hydroxypropylcellulose) (HPC), higher = longer survival 122 % of control

Cc1cc(OCc2nc(N)nc(N)c2-c2ccc(Cl)c(Cl)c2)ccc1NS(=O)(=O)c1cccc(S(=O)(=O)F)c1
inactive: endpoint: median survival time, dose: 117.0 mg/kg/injection, schedule: Q04DX003 (ip), vehicle: saline, higher = longer survival 95 % of control | endpoint: median survival time, dose: 176.0 mg/kg/injection, schedule: Q04DX003 (ip), vehicle: saline, higher = longer survival 118 % of control

O=C1c2c(O)ccc(O)c2C(=O)c2c(NCCNCCO)ccc(NCCNCCO)c21
inactive: endpoint: median survival time, dose: 0.25 mg/kg/injection, schedule: Q01DX009 (ip), vehicle: other, higher = longer survival 102 % of control | endpoint: median survival time, dose: 0.5 mg/kg/injection, schedule: Q01DX009 (ip), vehicle: other, higher = longer survival 89 % of control | endpoint: median survival time, dose: 0.5 mg/kg/injection, schedule: Q01DX009 (ip), vehicle: saline with Tween-80, higher = longer survival 120 % of control | endpoint: median survival time, dose: 1.0 mg/kg/injection, schedule: Q01DX009 (ip), vehicle: other, higher = longer survival 106 % of control | endpoint: median survival time, dose: 2.0 mg/kg/injection, schedule: Q01DX009 (ip), vehicle: other, higher = longer survival 90 % of control | endpoint: median survival time, dose: 2.0 mg/kg/injection, schedule: Q01DX009 (ip), vehicle: saline with Tween-80, higher = longer survival 102 % of control and 123 % of control

O=c1[nH]cc(F)c(=O)[nH]1
inactive: endpoint: median survival time, dose: 5.0 mg/kg/injection, schedule: Q01DX009 (ip), vehicle: saline, higher = longer survival 77 % of control | endpoint: median survival time, dose: 8.4 mg/kg/injection, schedule: Q01DX009 (ip), vehicle: saline, higher = longer survival 100 % of control | endpoint: median survival time, dose: 10.0 mg/kg/injection, schedule: Q01DX009 (ip), vehicle: Klucel (hydroxypropylcellulose) (HPC), higher = longer survival 100 % of control | endpoint: median survival time, dose: 10.0 mg/kg/injection, schedule: Q01DX009 (ip), vehicle: saline with Tween-80, higher = longer survival 98 % of control and 101 % of control | endpoint: median survival time, dose: 14.0 mg/kg/injection, schedule: Q01DX009 (ip), vehicle: saline, higher = longer survival 97 % of control | [2] 100 % of control | endpoint: median survival time, dose: 20.0 mg/kg/injection, schedule: Q01DX009 (ip), vehicle: saline with Tween-80, higher = longer survival 111 % of control | endpoint: median survival time, dose: 23.0 mg/kg/injection, schedule: Q01DX009 (ip), vehicle: saline, higher = longer survival 107 % of control | endpoint: median survival time, dose: 23.0 mg/kg/injection, schedule: Q04DX003 (ip), vehicle: saline, higher = longer survival 100 % of control | endpoint: median survival time, dose: 39.0 mg/kg/injection, schedule: Q04DX003 (ip), vehicle: saline, higher = longer survival 97 % of control | endpoint: median survival time, dose: 40.0 mg/kg/injection, schedule: Q01DX009 (ip), vehicle: saline with Tween-80, higher = longer survival 98 % of control and 107 % of control | [1] 113 % of control | endpoint: median survival time, dose: 65.0 mg/kg/injection, schedule: Q04DX003 (ip), vehicle: saline, higher = longer survival 86 % of control | endpoint: median survival time, dose: 108.0 mg/kg/injection, schedule: Q04DX003 (ip), vehicle: saline, higher = longer survival 107 % of control
56 % of control: endpoint: median tumor weight (est.), dose: 20.0 mg/kg/injection, schedule: Q01DX009 (ip), vehicle: saline with Tween-80, higher = larger tumour
39 % of control: endpoint: median tumor weight (est.), dose: 40.0 mg/kg/injection, schedule: Q01DX009 (ip), vehicle: saline with Tween-80, higher = larger tumour
97 % of control and 84 % of control: endpoint: median tumor weight (est.), dose: 10.0 mg/kg/injection, schedule: Q01DX009 (ip), vehicle: Klucel (hydroxypropylcellulose) (HPC), higher = larger tumour
65 % of control: endpoint: median tumor weight (est.), dose: 10.0 mg/kg/injection, schedule: Q01DX009 (ip), vehicle: saline with Tween-80, higher = larger tumour
75 % of control: endpoint: median tumor weight (est.), dose: 40.0 mg/kg/injection, schedule: Q01DX009 (ip), vehicle: Klucel (hydroxypropylcellulose) (HPC), higher = larger tumour

CC1(C)OCC(CO)(Nc2nc(N3CC3)nc(N3CC3)n2)CO1
inactive: endpoint: median survival time, dose: 1.7 mg/kg/injection, schedule: Q01DX009 (ip), vehicle: saline, higher = longer survival 112 % of control | endpoint: median survival time, dose: 2.5 mg/kg/injection, schedule: Q01DX009 (ip), vehicle: saline, higher = longer survival 104 % of control | endpoint: median survival time, dose: 3.8 mg/kg/injection, schedule: Q01DX009 (ip), vehicle: saline, higher = longer survival 88 % of control
